pIC50: −log10 of the molar value.
Molecular target: T1, HDAC-1 (Homo sapiens, UniProt Q13547)
T1 construct: made in house; host or cells: Sf9 or Sf21 insect cells (baculovirus, donor vector pFB-GSTX3)
Test: HDAC Inhibition Assay (purified GST-HDAC protein)
Assay type: biochemical
Excerpt: The baculovirus donor vector pFB-GSTX3 is used to generate a recombinant baculovirus that can express the HDAC polypeptide. Transfer vectors containing the HDAC coding region are transfected into the DH10Bac cell line (GIBCO) and plated on selective agar plates. Colonies without insertion of the fusion sequence into the viral genome (carried by the bacteria) are blue. Single, white colonies are picked and viral DNAs (bacmid) are isolated from the bacteria by standard plasmid purification procedures. Sf9 cells or Sf21 (American Type Culture Collection) cells are then transfected in […] flasks with the viral DNA using Cellfectin reagent.
Virus-containing media is collected from the transfected cell culture and used for infection to increase its titer. Virus-containing media obtained after two rounds of infection is used for large-scale protein expression. For large-scale protein expression 100 cm^2 round tissue culture plates are seeded with 5×10^7 cells/plate and infected with 1 mL of virus-containing media (at an approximately MOI of 5). After 3 days, the cells are scraped off the plate and centrifuged at 500 rpm for 5 minutes. Cell pellets from 10-20, 100 cm^2 plates, are re-suspended in 50 mL of ice-cold lysis buffer (25 mM tris-HCl, pH 7.5, 2 mM EDTA, 1% NP-40, 1 mM DTT, 1 mM P MSF). The cells are stirred on ice for 15 minutes and then centrifuged at 5,000 rpms for 20 minutes.
The centrifuged cell lysate is loaded onto a 2 mL glutathione-sepharose column (Pharmacia) and is washed thrice with 10 mL of 25 mM tris-HCl, pH 7.5, 2 mM EDTA, 1 mM DTT, 200 mM NaCl. The GST-tagged proteins are then eluted by 10 applications (1 mL each) of 25 mM tris-HCl, pH 7.5, 10 mM reduced-glutathione, 100 mM NaCl, 1 mM DTT, 10% glycerol and stored at −70° C.
HDAC assays with purified GST-HDAC protein are carried out in a final volume of 30 μL containing 15 ng of GST-HDAC protein, 20 mM tris-HCl, pH 7.5, 1 mM MnCl2, 10 mM MgCl2, 1 mM DTT, 3 μg/mL poly(Glu,Tyr) 4:1, 1% DMSO, 2.0 μM ATP (γ-[^33P]-ATP 0.1 μCi). The activity is assayed in the presence or absence of inhibitors. […] Subsequently, […] of the reaction mixture are transferred onto EMMOBILON-PVDF membrane (Millipore) previously soaked for 5 minutes with methanol, rinsed with water, then soaked for 5 minutes with 0.5% H3PO4 and mounted on vacuum manifold with disconnected vacuum source. After spotting all samples, a vacuum is connected and each well rinsed with 200 μL 0.5% H3PO4. Membranes are removed and washed four times on a shaker with 1.0% H3PO4, once with ethanol. Membranes are counted after drying at ambient temperature, mounting in Packard TopCount 96-well frame, and addition of 10 μL/well of MICROSCINT™ (Packard).
• Input: 3×4 μL stopped assay on IMMOBILON membrane, not washed • Background (3 wells): assay with H2O instead of enzyme • Positive control (4 wells): 3% DMSO instead of compound • Bath control (1 well): no reaction mix
In each experiment, the actual inhibition by reference compound is used for normalization of IC50 values to the basis of an average value of the reference inhibitor:
Normalized IC50=measured IC50 average ref. IC50/measured ref. IC50

T1 sequence (Q13547 whole entry, species assumed): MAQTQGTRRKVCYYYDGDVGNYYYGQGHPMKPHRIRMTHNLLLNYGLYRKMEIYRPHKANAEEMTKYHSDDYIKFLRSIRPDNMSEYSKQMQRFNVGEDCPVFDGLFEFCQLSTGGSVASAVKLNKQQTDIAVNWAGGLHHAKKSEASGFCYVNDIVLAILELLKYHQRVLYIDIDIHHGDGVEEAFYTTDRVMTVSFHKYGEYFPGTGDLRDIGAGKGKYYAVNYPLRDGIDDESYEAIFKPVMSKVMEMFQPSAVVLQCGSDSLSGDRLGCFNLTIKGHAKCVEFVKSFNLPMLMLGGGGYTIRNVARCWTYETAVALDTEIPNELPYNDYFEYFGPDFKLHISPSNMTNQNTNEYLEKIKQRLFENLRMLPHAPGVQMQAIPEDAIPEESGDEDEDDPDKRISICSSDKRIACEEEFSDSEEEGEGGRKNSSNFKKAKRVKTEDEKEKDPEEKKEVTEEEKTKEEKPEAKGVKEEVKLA

pIC50 | SMILES
8.66 | O=C(CCc1ccc(CN2CCCC(c3c(-c4ccccc4)[nH]c4ccccc34)C2)cc1)NO (centres unmarked) [Compound 16, N-Hydroxy-3-{4-[3-(2-phenyl-1H-indol-3-yl)-piperidin-1-ylmethyl]-phenyl}-propionamide]
6.82 | CC1(C)c2[nH]c3ccccc3c2CCN1Cc1ccc(/C=C/C(=O)NO)cc1 [Compound 22, (E)-3-[4-(1,1-Dimethyl-1,3,4,9-tetrahydro-beta-carbolin-2-ylmethyl)-phenyl]-N-hydroxy-acrylamide]
7.41 | O=C(/C=C/c1ccc(CN2CCOC(c3nc(-c4ccccc4)no3)C2)cc1)NO (centres unmarked) [Compound 25, (E)-N-Hydroxy-3-{4-[2-(3-phenyl-[1,2,4]oxadiazol-5-yl)-morpholin-4-ylmethyl]-phenyl}-acrylamide]
7.00 | O=C(/C=C/c1ccc(CN2CCN(Cc3ccccc3)CC2)cc1)NO [Compound 26, (E)-3-[4-(4-Benzyl-piperazin-1-ylmethyl)-phenyl]-N-hydroxy-acrylamide]
6.89 | O=C(/C=C/c1ccc(CN2CCN(Cc3ccc(Br)cc3)CC2)cc1)NO [Compound 27, (E)-3-{4-[4-(4-Bromo-benzyl)-piperazin-1-ylmethyl]-phenyl}-N-hydroxy-acrylamide]
6.77 | CCOC(=O)N1CCN(Cc2ccc(/C=C/C(=O)NO)cc2)CC1 [Compound 28, 4-[4-((E)-2-Hydroxycarbamoyl-vinyl)-benzyl]-piperazine-1-carboxylic acid ethyl ester]
6.85 | O=C(/C=C/c1ccc(CN2CCN(C(=O)OCc3ccccc3)CC2)cc1)NO [Compound 29, 4-[4-((E)-2-Hydroxycarbamoyl-vinyl)-benzyl]-piperazine-1-carboxylic acid benzyl ester]
6.77 | Cn1c(N2CCN(Cc3ccc(/C=C/C(=O)NO)cc3)CC2)cccc1=O [Compound 30, (E)-N-Hydroxy-3-{4-[4-(1-methyl-6-oxo-1,6-dihydro-pyridin-2-yl)-piperazin-1-ylmethyl]-phenyl}-acrylamide]
6.64 | O=C(/C=C/c1ccc(CN2CCN(c3nc4ccccc4n3C(=O)c3ccccc3)CC2)cc1)NO [Compound 31, (E)-3-{4-[4-(1-Benzoyl-1H-benzoimidazol-2-yl)-piperazin-1-ylmethyl]-phenyl}-N-hydroxy-acrylamide]
7.00 | O=C(/C=C/c1ccc(CN2CCCCC2)cc1)NO [Compound 33, (E)-N-Hydroxy-3-(4-piperidin-1-ylmethyl-phenyl)-acrylamide]
7.49 | O=C(/C=C/c1ccc(CN2CCC3(CC2)OC(=O)Nc2ccccc23)cc1)NO [Compound 34]
7.34 | O=C(/C=C/c1ccc(CN2CCC(c3cc4ccccc4o3)CC2)cc1)NO [Compound 35, (E)-3-[4-(4-Benzofuran-2-yl-piperidin-1-ylmethyl)-phenyl]-N-hydroxy-acrylamide]
6.30 | COc1cc(Br)c2oc(C3CCN(Cc4ccc(/C=C/C(=O)NO)cc4)CC3)cc2c1 [Compound 36, (E)-3-{4-[4-(7-Bromo-5-methoxy-benzofuran-2-yl)-piperidin-1-ylmethyl]-phenyl}-N-hydroxy-acrylamide]
> 6.37 | O=C(/C=C/c1ccc(CN2CCC3(CC2)NC(=O)N(CC2CC2)C3=O)cc1)NO [Compound 37, (E)-3-[4-(3-Cyclopropylmethyl-2,4-dioxo-1,3,8-triaza-spiro[4.5]dec-8-ylmethyl)-phenyl]-N-hydroxy-acrylamide]
6.96 | O=C(/C=C/c1ccc(CN2CCC3(CCc4ccccc4O3)CC2)cc1)NO [Compound 38, (E)-N-Hydroxy-3-(4-(spiro[chroman-2,4′-piperidine]-1′-ylmethyl)phenyl)acrylamide]
7.57 | CS(=O)(=O)N1CC2(CCN(Cc3ccc(/C=C/C(=O)NO)cc3)CC2)c2ccccc21 [Compound 39]

pIC50 | SMILES
7.57 | O=C(/C=C/c1ccc(CN2CCC(c3ccc(Cl)cc3CN3CCCC3=O)CC2)cc1)NO [Compound 40, (E)-3-(4-{4-[4-Chloro-2-(2-oxo-pyrrolidin-1-ylmethyl)-phenyl]-piperidin-1-ylmethyl}-phenyl)-N-hydroxy-acrylamide]
7.80 | O=C(/C=C/c1ccc(CN2CCC(N3CCc4ccccc4C3=O)CC2)cc1)NO [Compound 41, (E)-N-Hydroxy-3-{4-[4-(1-oxo-3,4-dihydro-1H-isoquinolin-2-yl)-piperidin-1-ylmethyl]-phenyl}-acrylamide]
7.15 | CC(=O)N(C)CC1(c2ccccc2)CCN(Cc2ccc(/C=C/C(=O)NO)cc2)CC1 [Compound 42, (E)-3-(4-{4-[(Acetyl-methyl-amino)-methyl]-4-phenyl-piperidin-1-ylmethyl}-phenyl)-N-hydroxy-acrylamide]
7.62 | CN1C(=O)C2(CCN(Cc3ccc(/C=C/C(=O)NO)cc3)CC2)c2ccccc21 [Compound 43, (E)-N-Hydroxy-3-(4-((1-methyl-2-oxospiro[indoline-3,4′-piperidine]-1′-yl)methyl)phenyl)acrylamide]
7.30 | O=C(/C=C/c1ccc(CN2CCC(N3CCNC3=O)CC2)cc1)NO [Compound 44, (E)-N-Hydroxy-3-{4-[4-(2-oxo-imidazolidin-1-yl)-piperidin-1-ylmethyl]-phenyl}-acrylamide]
6.96 | O=C(/C=C/c1ccc(CN2CCC(CC(=O)NO)(c3ccc(Cl)cc3)CC2)cc1)NO [Compound 45, (E)-3-{4-[4-(4-Chloro-phenyl)-4-hydroxycarbamoylmethyl-piperidin-1-ylmethyl]-phenyl}-N-hydroxy-acrylamide]
6.52 | O=C(/C=C/c1ccc(CN2CCOCC2)cc1)NO [Compound 47, (E)-N-Hydroxy-3-(4-morpholin-4-ylmethyl-phenyl)-acrylamide]
6.89 | O=C(/C=C/c1ccc(CN2CCC3(CC2)OCCO3)cc1)NO [Compound 48, (E)-3-[4-(1,4-Dioxa-8-aza-spiro[4.5]dec-8-ylmethyl)-phenyl]-N-hydroxy-acrylamide]
7.43 | O=C(/C=C/c1ccc(CN2CCC(Cc3ccccc3)CC2)cc1)NO [Compound 49, (E)-3-[4-(4-Benzyl-piperidin-1-ylmethyl)-phenyl]-N-hydroxy-acrylamide]
6.64 | O=C(/C=C/c1ccc(CN2CCN(S(=O)(=O)c3ccccc3)CC2)cc1)NO [Compound 50, (E)-3-[4-(4-Benzenesulfonyl-piperazin-1-ylmethyl)-phenyl]-N-hydroxy-acrylamide]
6.96 | O=C(/C=C/c1ccc(CN2CCN(C(=O)c3ccccc3)CC2)cc1)NO [Compound 51, (E)-3-[4-(4-Benzoyl-piperazin-1-ylmethyl)-phenyl]-N-hydroxy-acrylamide]
6.46 | CCC(=O)N1CCN(Cc2ccc(/C=C/C(=O)NO)cc2)CC1 [Compound 52, (E)-N-Hydroxy-3-[4-(4-propionyl-piperazin-l-ylmethyl)-phenyl]-acrylamide]
6.80 | CC(C)(C)CC(=O)N1CCN(Cc2ccc(/C=C/C(=O)NO)cc2)CC1 [Compound 53, (E)-3-{4-[4-(3,3-Dimethyl-butyryl)-piperazin-1-ylmethyl]-phenyl}-N-hydroxy-acrylamide]
6.89 | O=C(/C=C/c1ccc(CN2CCN(C(=O)C3CCCCC3)CC2)cc1)NO [Compound 54, (E)-3-[4-(4-Cyclohexanecarbonyl-piperazin-1-ylmethyl)-phenyl]-N-hydroxy-acrylamide]
6.64 | Cc1ccc(S(=O)(=O)N2CCN(Cc3ccc(/C=C/C(=O)NO)cc3)CC2)cc1 [Compound 55, (E)-N-Hydroxy-3-{4-[4-(toluene-4-sulfonyl)-piperazin-1-ylmethyl]-phenyl}-acrylamide]
6.59 | Cc1cccc(S(=O)(=O)N2CCN(Cc3ccc(/C=C/C(=O)NO)cc3)CC2)c1 [Compound 56, (E)-N-Hydroxy-3-{4-[4-(toluene-3-sulfonyl)-piperazin-1-ylmethyl]-phenyl}-acrylamide]
